Source: patent publication US20090275586A1, “HETEROCYCLIC INHIBITORS OF PDE4” (KALYPSYS, INC., priority 2006, published 2009)

Experiments:
PDE4B = target: T1, PDE4B (Homo sapiens, UniProt Q07343); assay: PDE4 IMAP Assay; type: biochemical; settings: 2 h; Activity at 10 μM; catalytic domain of PDE4B; read-out: PDE IMAP Assay
T1 construct: hexa-histidine (His6) (N); made in house
From the text: Compounds may be screened for functional potency in in vitro biochemical assays for their ability to inhibit the activity of phosphodiesterase (PDE) enzymes. A commercial PDE assay, Molecular Device's PDE IMAP assay, was modified and utilized to measure the inhibitory activity of compounds on PDE isoforms. The IMAP technology is based on the high affinity binding of phosphate by immobilized metal (MIII) coordination complexes on nanoparticles. This IMAP “binding reagent” complexes with phosphate groups on the nucleotide monophosphates generated in the reaction. Such binding causes a change in the rate of the molecular motion of the nucleotide, and results in an increase in the fluorescence polarization value observed for the fluorescent label attached to the substrate. PDE inhibitors prevent the generation of nucleotide monophosphates and the subsequent increase in polarization value observed for the fluorescent label attached to the substrate. The catalytic domain of PDE4B was fused to an amino-terminus hex-histadine affinity tag and purified. PDE4B enzyme was incubated with compounds for 10 minutes. Fluorescently labeled cyclic AMP substrates were then added to the PDE enzyme mix and incubated for 2 hours at room temperature. IMAP binding reagent was then added to the enzyme mix, incubated for 10-30 minutes and fluorescent polarization of the fluorescently labeled substrate was read either with the Perkin Elmer Viewlux or Molecular Devices Acquest or Analyst. Roflumilast and Rolipram are the positive controls used in the assay.

PDE4 = PDE4 Cellular CNG Assay; type: cell-based; settings: Activity at 10 μM; HEK293 cells stably expressing the CNG channel
From the text: Compounds may be screened for functional potency in in vitro cellular assays for their ability to inhibit the activity of phosphodiesterase (PDE) enzymes. A commercial membrane potential assay, Molecular Device's membrane potential assay kit, was modified and utilized to measure the inhibitory activity of compounds on PDE isoforms in living cells. The cellular assay utilizes genetically engineered cyclic nucleotide-gated (CNG) channels as cyclic-AMP (cAMP) sensors. On binding cAMP these ion channels open, allowing the flow of cations across the plasma membrane. CNG channel activity can be monitored by measuring Ca^2+ influx in cell populations. The influx of Ca causes a change in membrane potential that is measured by voltage sensitive dyes. PDE inhibitors prevent the degradation of cAMP that is generated by adenylyl cyclases that are activated upon stimulation of G protein-coupled receptors (GPCR) linked to the cAMP pathway. In brief, Molecular Device's membrane potential dye was added to HEK293 cells stably expressing the CNG channel and incubated for 2 hours at room temperature. Test compounds were then added to the cells and incubated for 15 minutes. A GPCR agonist was then added to the cells to stimulate the cAMP pathway and incubated for 45 minutes. Fluorescent measurements were then conducted with either the Molecular Devices Acquest or Analyst. PDE inhibitors will inhibit the degradation of cAMP and cause an increase in fluorescent signal. Roflumilast and Rolipram are the positive controls used in the assay.

recombinant human PDE4 = settings: reported value; read-out: IC50 with respect to inhibiting recombinant human PDE4; cited from earlier work

T1 sequence (Q07343 330-659 limits assumed, species assumed): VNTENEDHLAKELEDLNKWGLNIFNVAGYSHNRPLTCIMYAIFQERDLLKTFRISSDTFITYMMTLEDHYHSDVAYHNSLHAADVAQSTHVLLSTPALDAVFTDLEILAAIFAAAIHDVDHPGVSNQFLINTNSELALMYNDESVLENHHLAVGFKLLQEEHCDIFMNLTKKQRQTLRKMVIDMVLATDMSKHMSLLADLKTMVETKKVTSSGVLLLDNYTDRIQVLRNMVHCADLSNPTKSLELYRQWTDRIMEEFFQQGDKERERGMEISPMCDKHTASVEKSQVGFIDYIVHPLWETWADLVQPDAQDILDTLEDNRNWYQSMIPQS

| inhibition at 10 µM (PDE4B) [%] | Structure (SMILES) | Cellular CNG Assay (PDE4) | IC50 (recombinant human PDE4) [nM] |
| --- | --- | --- | --- |
| ≥ 50 | COc1ccccc1Cn1c(=O)c2cccnc2n(Cc2ccccc2F)c1=O [Example 27, 1-(2-Fluorobenzyl)-3-(2-methoxybenzyl)pyrido[2,3-d]pyrimidine-2,4(1H,3H)-dione] | + (+indicates Activity ≧ 50% at 10 μM) |  |
| ≥ 50 | C/C(NCCO)=C1\C(=O)N(c2nc3ccccc3s2)N=C1c1ccccc1 [Example 28, (E)-1-(Benzo[d]thiazol-2-yl)-4-(1-(2-hydroxyethylamino)ethylidene)-3-phenyl-1H-pyrazol-5(4H)-one] | + (+indicates Activity ≧ 50% at 10 μM) |  |
| ≥ 50 | CCOC(=O)C1=C(C)N(CC(C)C)C(=O)/C1=C\c1ccc(OC)c(OC)c1 [Example 29, (Z)-Ethyl 4-(3,4-dimethoxybenzylidene)-1-isobutyl-2-methyl-5-oxo-4,5-dihydro-1H-pyrrole-3-carboxylate] | + (+indicates Activity ≧ 50% at 10 μM) |  |
|  | COc1ccc(C2CNC(=O)C2)cc1OC1CCCC1 (stereo not shown) [rolipram] |  | ~200 |
